# In patent US20170165317A1, “METHOD FOR MITIGATING OR ALLEVIATING SYNAPTIC AND COGNITIVE DEFICITS” (Trustees of Dartmouth College, priority 2013, published 2017):
# Legend:
# APP/PS1 mice = experiment: Novel object location task after i.c.v. infusion by osmotic minipump; format: in vivo, mouse; details: VO-OHpic infused 3-4 weeks into brain ventricles
# Description: APP/PS1 and wild-type mice were anesthetized with isofluorane, and i.c.v. delivery cannulas (brain alzet kit III) were implanted with a stereotaxic frame (KOPF Instruments) at the following coordinates according to the bregma: AP, −0.5 mm; ML, 1 mm; and DV, −2.2 mm. Osmotic minipumps (Alzet) were filled with artificial cerebrospinal fluid (aCSF) with or without PTEN inhibitor VO-OHpic (2.5 μM) and equilibrated in 0.9% NaCl at 37° C. for 48 hours. They were attached to the i.c.v. cannula tubing and subcutaneously implanted at the back. After 21 days, behavioral testing was started as described herein. One month after implantation, mice were sacrificed and the brains were sliced stained with Nissl to verify the location of the cannula. Animal manipulation and data analysis was carried out blind with respect to genotype and treatment.
# Novel-Object Location. This assay was chosen because it is not intrinsically stressful. This factor, in mice, crucially affects cognitive performance in other spatial learning paradigms (e.g., Morris water maze). The memory tests were composed of three phases—“habituation”, “sample” and “choice” trials. Mice were first habituated individually to an empty open-field box (35×35×15 high cm) for 30 minutes. A sample trial (object exposure) consisted of placing a mouse into the test box which contained two identical objects. […] A recognition index was calculated by dividing the total time spent exploring the displaced object by the total time spent exploring both objects during the test session. […]
# It was posited that if early Aβ-induced cognitive impairment results from a general synaptic bias toward LTD events (Selkoe (2002) Science 298:789-791), dampening this form of synaptic plasticity might prevent cognitive decay. Therefore, it was determined whether in vivo inhibition of PTEN, a lipid phosphatase that is involved in LTD (Jurado, et al. (2010) EMBO J. 29:2827-2840), would rescue cognitive deficits in APP/PS1 mice. […]
# PTEN = experiment: phospho-Akt and phospho-Tyr levels in acute hippocampal slices; format: cell-based, mice
# CA1 individual neurons = experiment: Whole-cell LTP (pairing protocol) in CA1 neurons of organotypic slices with APPswe/lnd-EGFP expression; format: cell-based, rat; details: VO-OHpic 26-48 hours
# Description: The different versions of APP (APPwt, APPswe/lnd APPMV) and EGFP were co-expressed using an internal ribosomal entry site (IRES) construct. The EGFP-tagged versions of PTEN have been described (Jurado, et al. (2010) EMBO J. 29:2827-2840). All constructs were prepared in pSinRep5 for expression using Sindbis virus. Recombinant proteins were expressed in hippocampal CA1 pyramidal neurons from organotypic slice cultures. Organotypic hippocampal slices were prepared from postnatal day 5-7 rats and cultured during 6-8 days.
# The external solution (aCSF) contained 119 mM NaCl, 2.5 mM KCl, 1 mM NaH2PO4, 11 mM glucose, 26 mM NaHCO3, 4 mM MgCl2, 4 mM CaCl2, 100 μM picrotoxin and 2 μM 2-chloroadenosine, pH 7.4, and was gassed with 95% O2 and 5% CO2. Patch recording pipettes (4-7 MO) were filled with internal solution containing 115 mM CsMeSO3, 20 mM CsCl, 10 mM HEPES, 2.5 mM MgCl2, 4 mM Na2-ATP, 0.4 mM Na-GTP, 10 mM sodium phosphocreatine and 0.6 mM EGTA, pH 7.25. Bipolar stimulating electrodes were placed over Schaffer collateral fibers between 250 and 300 μm from the CA1 recorded cells, and synaptic responses were evoked with single voltage pulses (200 μs, up to 30 V). Responses were collected at −60 mV and +40 mV and averaged over 50-100 trials. LTP was induced using a pairing protocol by stimulating Schaffer collateral fibers at 3 Hz for 1.5 minutes while depolarizing the postsynaptic cell at 0 mV. All electrophysiological data were collected with pCLAMP software (Molecular Devices). Immunohistochemistry For the immunostaining protocol, hippocampal slice cultures were fixed with 4% paraformaldehyde for 24 hours washed in PBS and blocked with 5% horse serum for 2 hours. Sections were then incubated for 48 hours at 4° C. with primary antibody. […]
# However, this form of depression may in principle be due to Aβ exposure, to intracellular fragments derived from APP processing, or a combination thereof. To test the role of PTEN specifically in the effects of neuron-secreted Aβ, synaptic dysfunctions were monitored in untransfected cells neighboring APPswe/lnd-expressing neurons. […]
smiles,measurement,setting,value
O=C(O)c1ncccc1O.O=C(O)c1ncccc1O.[O]=[V][O-] [VO-OHpic],performance in novel object location task (recognition index),"APP/PS1 mice; APP/PS1 mice, P=0.02 vs vehicle-infused APP/PS1, recognition index similar to wild-type",significant improvement
same,performance in novel object location task (recognition index),APP/PS1 mice; wild-type mice,did not affect the performance
same,phospho-Akt (PIP3 downstream effector),PTEN,upregulation
same,phospho-Tyr levels (specificity versus Tyr phosphatases),PTEN,lack of effect
same,"LTP potentiation, APPswe/lnd-EGFP infected cells",CA1 individual neurons; P=0.01,220%
same,"LTP potentiation, uninfected cells exposed to Aβ","CA1 individual neurons; uninfected neurons adjacent to infected cells, P=0.0006",339%
same,magnitude of LTP in control slices,CA1 individual neurons; slices not exposed to APPswe/lnd-EGFP virus,did not affect the magnitude of LTP
